Here are results for 14 compounds from ChEMBL document CHEMBL1122639, “Racemic and optically active 2,9-dimethyl-5-(m-hydroxyphenyl)morphans and pharmacological comparison with the 9-demethyl homologues” (1984).

Test [1] has as its system Mus musculus. Description: Compound was administered subcutaneously and was evaluated for opioid antagonist activity (versus morphine) by tail-flick (TF) antagonism test. The format is functional.
The subject of test [2] is Mus musculus. Description: Compound was administered subcutaneously and was evaluated for opioid agonist activity by antinociceptive hotplate (HP) assay in mice. Particulars: sc. Type of test: functional.
Test [3] deals with Mus musculus. Briefly: Compound was administered subcutaneously and was evaluated for opioid agonist activity by antinociceptive p-phenylquinone-writhing (PPQ) assay in mice. Type of test: functional. In general terms: An intraperitoneal irritant provokes the stretching counted in writhing tests.
Test [4] has as its system Mus musculus. Description: Compound was administered subcutaneously and was evaluated for opioid agonist activity by antinociceptive tail-flick (TF) assay in mice. Type of test: functional.
Test [5] concerns Mus musculus. Description: Compound was administered subcutaneously and was evaluated for opioid agonist activity by antinociceptive hotplate (HP) assay in mice. The format is functional.
Test [6] concerns Mus musculus. Briefly: Compound was administered subcutaneously and was evaluated for opioid agonist activity by antinociceptive tail-flick (TF) assay in mice; I denotes Inactive at 30 mg/kg. Type of test: functional, organism-based. Also noted: dose 30 mg/kg.
The subject of test [7] is Mus musculus. Briefly: Compound was administered subcutaneously and was evaluated for opioid antagonist activity (versus morphine) by tail-flick (TF) antagonism test; I denotes Inactive at 30 mg/kg. The format is functional, organism-based. Also noted: dose 30 mg/kg.
Test [8] relates to Mus musculus. Description: Compound was administered subcutaneously and was evaluated for opioid agonist activity by antinociceptive p-phenylquinone-writhing (PPQ) assay in mice; I denotes Inactive at 30 mg/kg. Also noted: dose 30 mg/kg. Type of test: functional, organism-based.
The test system of test [9] is Mus musculus. Description: Compound was administered subcutaneously and was evaluated for opioid agonist activity by antinociceptive hotplate (HP) assay in mice; I denotes Inactive at 30 mg/kg. Type of test: functional, organism-based. More on the design: dose 30 mg/kg.
Test [10] concerns Mus musculus. Description: Compound was administered subcutaneously and was evaluated for opioid antagonist activity (versus morphine) by tail-flick (TF) antagonism test. The format is functional.
For test [11], the system named is Mus musculus. Description: Compound was administered subcutaneously and was evaluated for opioid agonist activity by antinociceptive p-phenylquinone-writhing (PPQ) assay in mice,. The format is functional. Particulars: sc.
The subject of test [12] is Mus musculus. Briefly: Compound was administered subcutaneously and was evaluated for opioid agonist activity by antinociceptive tail-flick (TF) assay in mice. Type of test: functional. Conditions: sc.
Test [13] concerns Mus musculus. Briefly: Compound was administered subcutaneously and was evaluated for opioid agonist activity by antinociceptive hotplate (HP) assay in mice,. The format is functional. Conditions: sc.
Setting [14] is: Mus musculus, sc, read-out: ED50.

Active and inactive are the calls of the source. The calls are words filed in the database; no cut-off is given here.

One may read the ED50 as the midpoint of the dose-response relation. Regarding `C[C@@H]1[C@H]2CCC[C@@]1(c1cccc(O)c1)CCN2C.Cl` (stereo in doubt; form 3), in the test with Mus musculus [1], the AD50 stood at 5 mg/kg. The compound also registered an ED50 in the test on Mus musculus [2] of 9.3 mg/kg.

For the compound `Br.CN1CC[C@]2(c3cccc(O)c3)CCC[C@@H]1C2` (stereo in doubt; (+)), the figures for the ED50 in the test with Mus musculus [3] (setting [14]), in the test on Mus musculus [4] and in the test with Mus musculus [5] were 0.5 mg/kg, 1.1 mg/kg and 0.4 mg/kg, respectively.

For the compound `COc1cccc([C@@]23CCC[C@H]([C@H]2C)N(C)CC3)c1`, the ED50 entry with Mus musculus [6], with Mus musculus [7], in the test on Mus musculus [8] and in the test on Mus musculus [9] was “inactive” in each case.

Turning to `Br.CN1CC[C@]2(c3cccc(O)c3)CCC[C@@H]1C2` (stereo in doubt; (-)), the ED50 in the test on Mus musculus [3] was 0.9 mg/kg; with Mus musculus [4], 5.4 mg/kg; in the test with Mus musculus [5], 1.7 mg/kg.

For `C[C@@H]1[C@H]2CCC[C@@]1(c1cccc(O)c1)CCN2C.Cl` (stereo in doubt; form 1), the AD50 in the test on Mus musculus [10] worked out at 4.5 mg/kg.

For `C=CCN1CC[C@]23c4c5ccc(O)c4O[C@H]2[C@@H](O)C=C[C@H]3[C@H]1C5` [NALORPHINE], the ED50 result with Mus musculus [6] is “inactive”. Besides, the AD50 with Mus musculus [1] turned out to be 2.6 mg/kg. For the same compound, the ED50 in the test with Mus musculus [3] (setting [14]) was determined as 0.6 mg/kg.

As to `CN1CC[C@]2(c3cccc(O)c3)CCC[C@@H]1C2` (stereo in doubt; (-)), the AD50 result with Mus musculus [7] is “inactive”.

Turning to `C[C@@H]1[C@H]2CCC[C@@]1(c1cccc(O)c1)CCN2C` (stereo in doubt; form 1), the ED50 result with Mus musculus [6], in the test on Mus musculus [8] and in the test with Mus musculus [9] was “inactive” throughout.

With `CN1CC[C@]2(c3cccc(O)c3)CCC[C@@H]1C2` (stereo in doubt; (+)), in the test on Mus musculus [7], the AD50 entry is “inactive”.

Turning to `CN1CC[C@]23c4c5ccc(O)c4O[C@H]2[C@@H](O)C=C[C@H]3[C@H]1C5` [MORPHINE], in the test with Mus musculus [7], the AD50 result was “inactive”. Further, it took a dose of 0.2 mg/kg to reach the 50% effect level in the test on Mus musculus [11] (ED50).

As to `C[C@@H]1[C@H]2CCC[C@@]1(c1cccc(O)c1)CCN2C` (stereo in doubt; form 3), the ED50 entry in the test on Mus musculus [6] and with Mus musculus [8] was “inactive” in each case.

As for `C[C@@H]1[C@H]2CCC[C@@]1(c1cccc(O)c1)CCN2C.Cl` (stereo in doubt; form 2), the ED50 in the test with Mus musculus [3] (setting [14]) was 1.9 mg/kg; with Mus musculus [5] (setting [14]) it was 10 mg/kg.

On to `C[C@@H]1[C@H]2CCC[C@@]1(c1cccc(O)c1)CCN2C` (stereo in doubt; form 2), for which the ED50 entry in the test on Mus musculus [6] was “inactive”. Further, in the test with Mus musculus [7], the AD50 result was “inactive”.

On to `COc1ccc2c3c1O[C@H]1[C@@H](O)C=C[C@H]4[C@@H](C2)N(C)CC[C@@]341` [CODEINE], for which the ED50 with Mus musculus [12] was determined as 14.5 mg/kg; in the test with Mus musculus [11], 1.4 mg/kg; in the test on Mus musculus [13], 6.8 mg/kg. Moreover, in the test on Mus musculus [7], the AD50 entry was “inactive”.
